Among the test systems are COLO 205 colon; HCT-116 colon; NCI-H460 lung; NCI/ADR-RES ovarian; PC-3 prostate; RPMI-8226 leukemia; SK-MEL-2 melanoma; SN12C renal; SR leukemia; UACC-62 melanoma.
Common to all, as to experiment: inhibition of tumour cell growth, NCI panel, 48 h

The structures appear in SMILES notation.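 Five compound concentrations were applied to cells in 96-well plates for 48 hours; endpoints were derived by simple linear interpolation of the resulting dose-response curve. At the TGI there is no net growth.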

For the compound `CCOC(=O)[C@@H]1ON2OC(OC3CCCC3(c3ccccc3)c3ccccc3)C(OC(C)=O)[C@H]3OC(=O)[C@@H]1C32` (stereo not given in full), the TGI in the test with COLO 205 colon, in the test on HCT-116 colon, with NCI-H460 lung, in the test with NCI/ADR-RES ovarian, in the test on PC-3 prostate and with RPMI-8226 leukemia was > 100 µM throughout. Further, the TGI with SK-MEL-2 melanoma, with SN12C renal, in the test with SR leukemia and in the test with UACC-62 melanoma was > 100 µM in each case.

With `OC1C[C@H](c2ccccc2)C2(C(O)c3ccccc3C2O)[C@@H](c2ccccc2)C1` (stereo not given in full), the TGI with COLO 205 colon, in the test with HCT-116 colon, in the test with NCI-H460 lung, in the test with NCI/ADR-RES ovarian, in the test on PC-3 prostate and with RPMI-8226 leukemia was > 100 µM each time. For the same compound, the TGI in the test on SK-MEL-2 melanoma is > 100 µM; in the test on SN12C renal, > 100 µM; in the test on SR leukemia it was 68.1 µM; in the test with UACC-62 melanoma it was > 100 µM.

As to `C[C@H]1COC2=C1C(=O)C(=O)c1c2ccc2c1CCCC2(C)C`, the TGI in the test with COLO 205 colon was 4.19 µM; in the test with HCT-116 colon, 46.3 µM; with NCI-H460 lung, > 34.5 µM; with NCI/ADR-RES ovarian it was 24 µM; in the test on PC-3 prostate it was > 64.5 µM; in the test with RPMI-8226 leukemia it was 71.2 µM. The TGI in the test with SK-MEL-2 melanoma is 15.3 µM; with SN12C renal it was 21.1 µM; in the test on SR leukemia it was > 42.7 µM; with UACC-62 melanoma, 8.2 µM.

Regarding `COc1cc(CS(=O)c2ccc(O)cc2)cc(OC)c1OC` (stereo not given), the TGI in the test with COLO 205 colon, in the test with HCT-116 colon, in the test on NCI-H460 lung, in the test with NCI/ADR-RES ovarian, with PC-3 prostate and with RPMI-8226 leukemia was > 100 µM each time. Also, the TGI in the test on SK-MEL-2 melanoma, in the test with SN12C renal, in the test with SR leukemia and with UACC-62 melanoma was > 100 µM in each case.

Consider `CC(C)(C)[Si](C)(C)OCC1OC(n2cnc3c(=O)[nH]c(N)nc32)C(O[Si](C)(C)C(C)(C)C)C1O[Si](C)(C)C(C)(C)C` (stereo not given), for which the TGI in the test on COLO 205 colon was 3.2 µM; in the test on HCT-116 colon, 2.61 µM; in the test on NCI-H460 lung it was 6.54 µM; in the test on NCI/ADR-RES ovarian, > 100 µM; with PC-3 prostate, 9.79 µM; with RPMI-8226 leukemia, 3.46 µM. Further, the TGI in the test on SK-MEL-2 melanoma was found to be 1.01 µM; in the test on SN12C renal, 5.02 µM; in the test on SR leukemia, 5.48 µM; with UACC-62 melanoma, 4.3 µM.

Take `COc1ccc(N2NC(c3ccccc3)(c3ccccc3)C(C)C2=O)cc1` (stereo not given): the TGI was 34 µM with COLO 205 colon; > 100 µM with HCT-116 colon; > 100 µM in the test with NCI-H460 lung; > 100 µM in the test with NCI/ADR-RES ovarian; > 100 µM with PC-3 prostate; > 100 µM with RPMI-8226 leukemia. For the same compound, the TGI in the test on SK-MEL-2 melanoma, in the test on SN12C renal, in the test on SR leukemia and in the test with UACC-62 melanoma was > 100 µM in each case.

`O=C1CC2CCC(C1)S2=O` (stereo not given): the TGI in the test with COLO 205 colon, in the test with HCT-116 colon, in the test with NCI-H460 lung, in the test with NCI/ADR-RES ovarian, in the test on PC-3 prostate and with RPMI-8226 leukemia was > 100 µM each time. The TGI in the test on SK-MEL-2 melanoma, in the test on SN12C renal, with SR leukemia and in the test with UACC-62 melanoma was > 100 µM throughout.

For the compound `c1ccc(CN2CCN3CCN(CC2)CCN(Cc2ccccc2)CC3)cc1`, the TGI in the test on COLO 205 colon is 5.06 µM; in the test on HCT-116 colon it was 16.4 µM; in the test with NCI-H460 lung, 19.3 µM; with NCI/ADR-RES ovarian it was > 100 µM; with PC-3 prostate it was 18.5 µM; in the test on RPMI-8226 leukemia, 9.83 µM. The TGI in the test with SK-MEL-2 melanoma amounted to 8.06 µM; with SN12C renal, 16.9 µM; with SR leukemia, 16.5 µM; in the test on UACC-62 melanoma it was 14.9 µM.

Turning to `C=C1CN(C2=NCCO2)C1`, the TGI in the test on COLO 205 colon, in the test on HCT-116 colon, in the test on NCI-H460 lung, in the test on NCI/ADR-RES ovarian, with PC-3 prostate and in the test on RPMI-8226 leukemia was > 100 µM throughout. For the same compound, the TGI in the test on SK-MEL-2 melanoma, with SN12C renal, in the test with SR leukemia and in the test with UACC-62 melanoma was > 100 µM each time.

`CC(=O)/C(=C/N1CCNC1=S)C(=O)Nc1ccccc1C`: the TGI in the test on COLO 205 colon, with HCT-116 colon, in the test with NCI-H460 lung, in the test with NCI/ADR-RES ovarian, in the test on PC-3 prostate and in the test with RPMI-8226 leukemia was > 100 µM in each case. Also, the TGI in the test on SK-MEL-2 melanoma, in the test on SN12C renal, in the test with SR leukemia and in the test with UACC-62 melanoma was > 100 µM in each case.

As for `C=CC(C)(C)C(=C)C(=O)Nc1ccccc1I`, the TGI in the test on COLO 205 colon, in the test on HCT-116 colon, in the test with NCI-H460 lung, with NCI/ADR-RES ovarian, in the test with PC-3 prostate and with RPMI-8226 leukemia was > 100 µM throughout. In addition, the TGI in the test with SK-MEL-2 melanoma, with SN12C renal, in the test with SR leukemia and in the test on UACC-62 melanoma was > 100 µM in each case.

Source of the values: PubChem BioAssay (NCI).
